{"source": "patent US20150299345A1", "about": "“ANTIBACTERIAL MONOMERS, ANTIBACTERIAL RESINS AND DENTAL COMPOSITES COMPRISING THE ANTIBACTERIAL RESINS” (UNIVERSITY OF MARYLAND, BALTIMORE, priority 2012, published 2015)", "key": {"[1]": {"tested_on": "S. mutans (ATCC 700610, UA159)", "experiment": "MIC and MBC by serial microdilution assays", "format": "cell-based, Streptococcus mutans", "conditions": "for antibacterial potency (MIC and MBC) compared with another agent: comparison in words; for MBC / MIC: 48 h, triplicate", "method": "MIC and MBC were measured using S. mutans (ATCC 700610, UA159, American Type Culture, Manassas, Va.). S. mutans is a cariogenic, aerotolerant anaerobic bacterium and the primary causative agent of dental caries (Loesche 1986). MIC and MBC were determined via serial microdilution assays (Imazato S et al. 2006; Huang L et al. 2011). Unpolymerized DMAHM or DMADM monomer was dissolved in brain heart infusion (BHI) broth (BD, Franklin Lakes, N.J.) to give a final concentration of 200 mg/mL. From these starting solutions, serial two fold dilutions were made into 1 mL volumes of BHI broth. 15 μL of stock S. mutans was added to 15 mL of BHI broth with 0.2% sucrose and incubated at 37° C. with 5% CO2. Overnight cultures of S. mutans were adjusted to 2×10^6 CFU/mL with BHI broth, and 50 μL of inocula was added to each well of a 96-well plate containing 50 μL of a series of antibacterial monomer dilution broths. BHI broth with 1×10^6 CFU/mL bacteria suspension without antibacterial agent served as negative control. Chlorhexidine diacetate (CHX) (Sigma, St. Louis, Mo.) served as positive control. The previously-synthesized QADM (Antonucci J M et al. 2012; Cheng L et al. 2012a) served as an antibacterial monomer control. After incubation at 37° C. in 5% CO2 for 48 h, the wells were read for turbidity, referenced by the negative and positive control wells. MIC was determined as the endpoint (the well with the lowest antibacterial agent concentration) where no turbidity could be detected with respect to the controls (Huang L et al. 2011). To determine MBC, an aliquot of 50 μL from each well without turbidity was inoculated on BHI agar plates and incubated at 37° C. in 5% CO2 for 48 h. MBC was determined as the lowest concentration of antibacterial agent that produced no colonies on the plate. The tests were performed in triplicate (Huang L et al. 2011)."}, "[2]": {"tested_on": "Human gingival fibroblasts (HGF)", "experiment": "Cytotoxicity of monomers via MTT assay", "format": "cell-based", "conditions": "for cytotoxicity / cell viability compared with BisGMA: human gingival fibroblasts, FIG. 1", "method": "Human gingival fibroblasts (HGF, ScienCell) were cultured in a fibroblast medium (FM). […] Then, HGF were seeded in 96-well plates at 5,000 cells per well. […] After 4 h, the unreacted dye was removed and 150 μL, of dimethyl sulfoxide was added. Absorbance was measured via the microplate reader at 492 nm. […] Cells were also live/dead stained (Molecular Probes) and examined with fluorescence microscopy (TE2000-S, Nikon) as shown in FIG. 1B."}, "[3]": {"tested_on": "dental plaque microcosm biofilms", "experiment": "Live/dead assay of biofilms (CLSM)", "format": "cell-based, human saliva inoculum", "conditions": "48-h biofilms on composite disks, FIG. 5", "method": "The dental plaque microcosm biofilm model used human saliva as inoculum. Saliva was collected from a healthy adult donor following a previous study (Cheng L et al. 2012b). The donor had natural dentition without active caries or periopathology, and without the use of antibiotics within the last 3 months. […] Stimulated saliva was collected during parafilm chewing and kept on ice. The saliva was diluted in sterile glycerol to a concentration of 70% saliva and 30% glycerol (Cheng L et al. 2012b), and stored at −80° C. The saliva-glycerol stock was added, with 1:50 final dilution, into the growth medium as inoculum. The growth medium contained mucin (type II, porcine, gastric) at a concentration of 2.5 g/L; bacteriological peptone, 2.0 g/L; tryptone, 2.0 g/L; yeast extract, 1.0 g/L; NaCl, 0.35 g/L, KCl, 0.2 g/L; CaCl2, 0.2 g/L; cysteine hydrochloride, 0.1 g/L; haemin, 0.001 g/L; vitamin K1, 0.0002 g/L, at pH 7 (McBain A J 2009). Composite disks were sterilized in ethylene oxide (Anprolene AN 74i, Andersen, Haw River, N.C.). 1.5 mL of inoculum was added to each well of 24-well plates with a composite disk, and incubated in 5% CO2 at 37° C. for 8 h. […] Live bacteria were stained with Syto 9 to produce a green fluorescence, and bacteria with compromised membranes were stained with propidium iodide to produce a red fluorescence. […]"}, "[4]": {"conditions": "unpolymerized monomer in BHI broth"}}, "note": "Like-named read-outs stand apart in the source and are kept apart here."}
{"compound": "C=C(C)C(=O)OCC[N+](C)(C)CCCCCCCCCCCC.[Br-]", "note": "[DMADDM, dimethylamino dodecyl methacrylate]", "values": [{"measurement": "antibacterial potency (MIC and MBC) compared with another agent", "setting": "[1]", "value": "more than two orders of magnitude lower than those of MDAHM"}, {"measurement": "MBC", "setting": "[1]; [4]", "value": 12.21, "unit": "µg/mL"}, {"measurement": "MIC", "setting": "[1]; [4]", "value": 6.10, "unit": "µg/mL"}, {"measurement": "fibroblast viability", "setting": "[2]; at each monomer concentration (0.5-100 μg/mL), 2 d, n=6, FIG. 1", "value": "highest fibroblast viability"}, {"measurement": "cytotoxicity / cell viability compared with BisGMA", "setting": "[2]", "value": "less cytotoxic"}, {"measurement": "antibacterial activity by live/dead staining of biofilms", "setting": "[3]", "value": "responsible for the antibacterial activity"}]}
{"compound": "CC(=O)O.CC(=O)O.NC(=N\\CCCCCC/N=C(N)/N=C(\\N)Nc1ccc(Cl)cc1)/N=C(\\N)Nc1ccc(Cl)cc1", "note": "[CHX, Chlorhexidine diacetate, reference compound]", "values": [{"measurement": "MBC", "setting": "[1]; [4]", "value": 3.91, "unit": "µg/mL"}, {"measurement": "MIC", "setting": "[1]; [4]", "value": 1.95, "unit": "µg/mL"}]}
{"compound": "C=C(C)C(=O)OCC[N+](C)(C)CCCCCCCCCCCCCCCC.[Br-]", "note": "[DMAHDM, dimethylamino hexadecyl methacrylate]", "values": [{"measurement": "antibacterial potency (MIC and MBC) compared with another agent", "setting": "[1]", "value": "an order of magnitude more potent than those for chain length 12"}, {"measurement": "MBC", "setting": "[1]; [4]", "value": 0.61, "unit": "µg/mL"}, {"measurement": "MIC", "setting": "[1]; [4]", "value": 0.305, "unit": "µg/mL"}]}
{"compound": "C=C(C)C(=O)OCCCCCCCCCCCC[n+]1ccccc1.[Br-]", "note": "[MDPB, reference compound]", "values": [{"measurement": "cytotoxicity / cell viability compared with BisGMA", "setting": "[2]", "value": "less cytotoxic"}]}
{"compound": "C=C(C)C(=O)OCC[N+](C)(C)CCCCCC.[Br-]", "note": "[DMAHM]", "values": [{"measurement": "antibacterial potency (MIC and MBC) compared with another agent", "setting": "[1]", "value": "more potent than the previously-synthesized QADM"}, {"measurement": "MBC", "setting": "[1]; [4]", "value": 3130, "unit": "µg/mL"}, {"measurement": "MIC", "setting": "[1]; [4]", "value": 1560, "unit": "µg/mL"}]}
{"compound": "C=C(C)C(=O)OCC[N+](C)(C)CCOC(=O)C(=C)C.[Br-]", "note": "[QADM, bis(2-methacryloyloxy-ethyl) dimethyl-ammonium bromide, reference compound]", "values": [{"measurement": "MBC", "setting": "[1]; Streptococcus mutans, ATCC700610, unpolymerized monomer in BHI broth, read-out: MBC", "value": 25000, "unit": "µg/mL"}, {"measurement": "MIC", "setting": "[1]; Streptococcus mutans, ATCC700610, unpolymerized monomer in BHI broth, read-out: MIC", "value": 12500, "unit": "µg/mL"}]}
